How the values were obtained:
Format in all cases: cell-based, Human
TGFβ signalling = assay: Luciferase reporter assay MCF7-GFP-SMAD(luc); settings: 50 µM, 2 and 5 days
Procedure: (§1) The Cignal Lenti reporter assay (luc) was used to monitor the activity of several signalling pathways in MCF7-GFP cells as explained previously. Luciferase Assay System (E1501, Promega) was performed according to manufacturer’s instructions. 1 × 10^4 MCF7 were seeded in black-walled 96 well plates. When cells were attached, drug treatments were added for 18, 48 hours and 5 days. After treatment, Luciferase Assay was performed according to manufacturer’s instructions and light signal was acquired in the Xenogen VivoVision IVIS Lumina. Results were normalized by SRB staining of cells grown in 96-well plates in parallel.
(§2) SRB (S9012, Sigma) measures total biomass by staining cellular proteins. After treatment, cells were fixed in 10% tricloroacetic acid (T9159, Sigma) for 1 hour at 4° C, stained with SRB (S9012, Sigma) for 15 minutes, and washed 3 times with 1% acetic acid (27225, Sigma). The incorporated die was solubilized with 10 mM Tris Base, pH 8.8 (T1503, Sigma). Absorbance was spectrophotometrically measured at 562 nm in a FluoStar Omega plate reader (BMG Labtech). Background measurements were subtracted from all values.

MCF7 cells [1] = assay: CD24/CD44 expression (FACS)
Procedure: (§3) Following mDIVI1 treatment, MCF7 cells grown either in suspension or as monolayers were analysed for their expression of CD24 and CD44. The surviving fraction after 2 days and 5 days of growth was analyzed by FACS. MCF7 cells were either trypsinised or spun down and trypsinised and incubated with CD24 (IOTest CD24-PE, Beckman Coulter) and CD44 (APC mouse anti-human CD44, 559942, BD Pharmingen) for 15 minutes on ice. Cells were then rinsed twice in PBS, spun down, and resuspended with DAPI dye (D1306, Molecular probes) at 3 μM in PBS for 10 minutes. Samples were then analyzed by FACS (Fortessa, BD Bioscence). Only the live cell population, identified using the DAPI staining, was analyzed for CD24/CD44 expression. Data were analyzed using FlowJo software.

MCF7 cells [2] = assay: Scratch assay (wound closure); settings: 48 hours
Procedure: A hundred thousand MCF7 cells per well were seeded in 12-well plates. When cells were attached, a horizontal scratch was performed using the tip of a pipette. Immediately after, the media was removed and either fresh vehicle-containing media or mDIVI1-containing media were added to the cells for 48 hours. Four replicates were used for each condition. Cells were incubated in a 5% CO2 atmosphere at 37° C in an Incucyte ZOOM System (Essen Bioscience). The wound closure was monitored by taking pictures of each well every 4 hours. At the end of the treatment, pictures of the wells at 0 and 48 hours were analysed using ImageJ software to calculate wound closure according to the following formula: Percentage wound closure=[(wound area0h−wound area48h)/wound area0h]×100

Wnt signalling = assay: Luciferase reporter assay MCF7-GFP-TCF/LEF(luc); settings: 50 µM, 2 and 5 days
Procedure: as §1, §2

MCF7 cells [3] = assay: DAPI viability of cells in suspension (anoikis resistance, FACS)
Procedure: as §3

MCF7 cells [4] = assay: Bradford assay (protein content)
Procedure: Extracellular acidification rate (ECAR) and oxygen consumption rate (OCR) were measured in a XF96 Extracellular Flux Analyzer (Seahorse Biosciences). Briefly, 1 × 10^4 MCF7 cells per well were seeded in XF96 plates and incubated with complete medium. When cells were attached, mDIVI1 and vehicle treatments were added. Six replicates were run for each condition. After 48 hours, un-buffered DMEM XF medium supplemented with 2 mM glutamine (pH 7.4) was added to the cells, and placed in a 37° C CO2-free incubator for 1 hour. Ten mM glucose, 1 μM oligomycin and 100 mM 2-deoxyglucose (2-DG) were injected into the media at different time points and ECAR was measured. Likewise, ECAR and OCR were quantified using un-buffered DMEM XF medium supplemented with 2 mM glutamine, 2 mM sodium pyruvate and 10 mM glucose. One μM oligomycin, 0.9 μM FCCP and 1 μM rotenone and antimycin A were injected into the media at different time points and OCR and ECAR were measured.
Cells were finally lysed with 0.1 M NaOH and protein lysate was subsequently stained with Quick Start™ Bradford 1× Dye Reagent (500–0205, BioRad) to normalise results. All parameters were calculated according to manufacturer.

Hedgehog signalling = assay: Luciferase reporter assay MCF7-GFP-GLI(luc); settings: 50 µM, 2 and 5 days
Procedure: as §1, §2

Structure (SMILES): COc1cc(-n2c(=S)[nH]c3ccccc3c2=O)c(Cl)cc1Cl [mDIVI1, 3-(2,4-Dichloro-5-methoxyphenyl) 2,3-dihydro 2-thioxo-4(1H) quinazolinone]
- TGFβ/SMAD pathway luciferase activity (TGFβ signalling): strikingly caused the inhibition
- CD24−/CD44+ subpopulation (MCF7 cells [1]; 50 µM, in suspension): significantly increased
- abundance of CD24−/CD44+ subpopulation (MCF7 cells [1]; 10 or 50 µM, cells grown as monolayers, vs vehicle): not reduced
- amount of CD24−/CD44+ cells (MCF7 cells [1]; cells in suspension, dose-dependent): unexpectedly increased
- reduction of percentage of wound closure vs vehicle (MCF7 cells [2]; 10 µM): 14%
- reduction of percentage of wound closure vs vehicle (MCF7 cells [2]; 50 µM): 44%
- Wnt/TCF pathway luciferase activity (Wnt signalling): strikingly caused the inhibition
- cell viability under anchorage-independent conditions (DAPI) vs vehicle (MCF7 cells [3]): no significant differences
- effect on MCF7 protein content (MCF7 cells [4]; 10 µM, 48 hours): slightly decreased
- effect on MCF7 protein content (MCF7 cells [4]; 20 µM, 2 days): significantly reduced
- reduction of MCF7 protein content (MCF7 cells [4]; 50 µM, 48 hours): ~40%
- Hedgehog/GLI pathway luciferase activity (Hedgehog signalling): strikingly caused the inhibition

— PMC5862576, “Mitochondrial fission as a driver of stemness in tumor cells: mDIVI1 inhibits mitochondrial function, cell migration and cancer stem cell (CSC) signalling” (Oncotarget, 2018)
